The values below are quoted from earlier work in patent US6380174B1, “Slime-removing composition for paper manufacture and method of controlling slime using the same” (SK Corporation, priority 1999, dated 2002).

For this data set, the system named is slime-causing microorganisms.

As for `N#CC(Br)(Br)C(N)=O` [DBNPA, 2,2-dibromo-3-nitrilepropionamide], the “amount required for early sterilization” value (after 3 hours) is recorded as 50 ppm. Moreover, under “after 24 hours”, the “amount necessary for sufficient sterilizing activity” value is listed as 5 ppm.
